Measured values from PubChem BioAssay (NCI).
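Method: 48-hour compound exposure of cells in 96-well plates, five concentrations, linear interpolation of endpoints. TGI denotes the concentration required for complete inhibition of growth.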

Columns and labels:
Test in all cases: NCI tumour cell line growth inhibition, 48 h
[1] = test system: SN12K1 renal
[2] = test system: P388/ADR leukemia
[3] = test system: DLD-1 colon
[4] = test system: DMS 114 small cell lung
[5] = test system: XF 498 CNS
[6] = test system: KM20L2 colon
[7] = test system: M19-MEL melanoma
[8] = test system: P388 leukemia
[9] = test system: HOP-18 NSCLC
[10] = test system: DMS 273 small cell lung
[11] = test system: LXFL 529 NSCLC
[12] = test system: RXF-631 renal

| Structure (SMILES) | TGI [1] [µM] | TGI [2] [µM] | TGI [3] [µM] | TGI [4] [µM] | TGI [5] [µM] | TGI [6] [µM] | TGI [7] [µM] | TGI [8] [µM] | TGI [9] [µM] | TGI [10] [µM] | TGI [11] [µM] | TGI [12] [µM] |
| --- | --- | --- | --- | --- | --- | --- | --- | --- | --- | --- | --- | --- |
| COC(=O)C(C/C=C(\C)c1ccc(Cl)cc1)C(C)=O (stereo unspecified) | > 61.7 | > 76.5 | > 100 | > 73.8 | > 100 | > 100 | > 92.5 | 46 | > 100 | > 72 |  |  |
| COc1cc(C2C(Cl)C(=O)N2NC(=O)c2ccc(N)cc2)cc(Br)c1O (stereo unspecified) |  |  | 40.2 | 21.8 | 30.7 | 33.6 | 32 |  |  | 31.9 | 11.3 |  |
| Ic1cc2c(cc1C1SCCCS1)OCO2 |  |  | > 100 | > 100 |  | > 100 | > 100 |  | > 100 | > 100 | > 100 | > 100 |
| CC(C)(C)C1=CC(=C2C(=O)C(=O)c3ccccc3C2=O)C=C(C(C)(C)C)C1=O |  |  | > 100 | 66.2 |  | > 100 | > 100 |  | > 100 | > 100 | > 100 |  |
| CC(=O)OC1COC(N2C(=O)C(=O)c3cc(Br)ccc32)C(OC(C)=O)C1OC(C)=O (stereo unspecified) |  |  | > 100 | > 100 | > 100 | > 100 | > 100 |  | > 100 | > 100 | > 100 | > 100 |
| Cc1c2ccncc2c(C)c2c1[nH]c1ccc(OCC(F)(F)F)cc12 |  |  | 3.32 |  | 3.07 | 2.78 | 3.49 |  |  | 2.17 | 2.43 |  |
| CCCCCC/C=C1\CCC(CN2CCOCC2)C1=O (stereo unspecified) |  |  | 27.4 | 33.2 | 29.9 | 37 |  |  | 20 | 32.5 | 11.1 |  |
| C=C[C@]1(C)CCC2=C(CCC3C2(C)CCC[C@@]3(C)COC(C)=O)C1 (stereo partly specified) |  |  | 34.7 | 37.4 | 34.4 | 33.5 | 50.8 |  | 70.1 |  | 32.5 | 38.1 |
| Nc1cc(=O)n(-c2ccccc2)c(=S)n1-c1ccccc1 |  |  | > 100 | > 100 | > 100 | > 100 | > 100 |  |  | > 100 | > 100 |  |
| CCN(CC)Cc1c(/C=C\c2cc(OC)c(OC)c(OC)c2)ccc(OC)c1O |  |  | > 100 | 5.68 | 21.5 | 11.9 | > 100 |  | > 100 | > 100 | > 100 |  |
| O=Cc1ccc(CCl)cc1 |  |  | 31.4 | 23.5 | 34.6 | 61.8 | 52.5 |  | 37.4 | 38.8 | 31.4 | 14.7 |
| CC(=O)NC(Cc1ccsc1)C(=O)O (stereo unspecified) | > 100 | > 100 | > 100 | > 100 | > 100 | > 100 | > 100 | > 100 | > 100 | > 100 |  |  |
| O=C(Nc1cccc2c1[nH]c1c(-c3ccccc3)nccc12)c1ccccc1[N+](=O)[O-] |  |  |  |  |  | > 100 |  |  | > 100 | > 100 | > 100 | > 100 |
| CCN(CC)CCNc1ccc2nnn3c4ccc(O)cc4c(=O)c1c23 |  |  | 17.5 | 22.1 |  | 17.6 |  |  | 42.7 |  | 20.3 |  |
